Test results reported in paper PMC7451656, “In vitro and in vivo growth inhibitory activities of cryptolepine hydrate against several Babesia species and Theileria equi” (PLoS Neglected Tropical Diseases, 2020).

Legend:
T. equi = experiment: Growth inhibitory fluorescence assay in vitro, T. equi; format: cell-based, Theileria equi
Description: (§1) Texas strain of B. bovis and Argentina strain of B. bigemina were grown using bovine red blood cells (RBCs, collected from cattle farm of Obihiro University of Agriculture and Veterinary Medicine and stored at 4°C) in medium 199 (M199; Sigma-Aldrich, Tokyo, Japan) supplemented with 40% bovine serum, while RPMI 1640 medium (Sigma-Aldrich, Tokyo, Japan) was used for B. divergens (German strain) cultivation. The United States Department of Agriculture (USDA) strain of T. equi was grown in equine RBCs (collected from horse farm of Obihiro University of Agriculture and Veterinary Medicine and stored at 4°C) in M199 supplemented with 40% equine serum, and hypoxanthine (MP Biomedicals, Santa Ana, CA, USA) at a final concentration of 13.6 μg/ml was used as a vital supplement, while GIT medium was used for B. caballi (USDA strain) cultivation. Sixty μg/ml of streptomycin, 0.15 μg/ml of amphotericin B, and 60 U/ml of penicillin G (Sigma-Aldrich, Tokyo, Japan) were added to all media to prevent fungal and bacterial contamination. All parasite cultures were maintained for a long time in a microaerophilic stationary-phase culture system.
(§2) The inhibition assay was conducted according to the previously described protocol. Briefly, different concentrations of CRY, DA, CF, and AQ were added in triplicate in 96-well plates with 1% parasitemia and 2.5% HCT for B. bovis and B. bigemina and 5% HCT for B. divergens, B. caballi, and T. equi. The plates were incubated in a humidified incubator with 5% CO2, 5% O2, and 90% N2 for 96 h without changing the media. After 96 h, 100 μl of lysis buffer containing 2 × SG1 was directly added to each well and the plates were then wrapped in aluminum foil for protection from direct light and incubated for 6 h at room temperature. Afterward, the fluorescence was measured using a fluorescence spectrophotometer (Fluoroskan Ascent, Thermo Fisher Scientific, USA) at 485 nm excitation and 518 nm emission wavelengths. The relative fluorescence value was set to percentages after subtracting the mean values of the negative control. The experiment was repeated thrice.
(§3) The IC50 values of CRY, DA, CF, and AQ were determined using the nonlinear regression curve fit in GraphPad Prism (GraphPad Software Inc., San Diego, CA, USA). Combination index (CI) values for the drug combination were calculated using CompuSyn software, and the degree of synergism was determined as the weighted average of CI values using a formula [(1 x IC50) + (2 x IC75) + (3 x IC90) + (4 x IC95)]/10 [30]. The differences in parasitemia and hematology profiles in the B. microti–infected mice were analyzed using an independent Student’s t-test and one-way ANOVA test using GraphPad Prism version 5.0 for Windows (GraphPad Software Inc., San Diego, CA, USA). A P-value < 0.05 was considered statistically significant.

B. bovis = experiment: Growth inhibitory fluorescence assay in vitro, B. bovis; format: cell-based, Babesia bovis
Description: as §1, §2, §3

B. divergens = experiment: Growth inhibitory fluorescence assay in vitro, B. divergens; format: cell-based, Babesia divergens
Description: as §1, §2, §3

B. caballi = experiment: Growth inhibitory fluorescence assay in vitro, B. caballi; format: cell-based, Babesia caballi
Description: as §1, §2, §3

[1] = tested on: Madin–Darby bovine kidney (MDBK) cell line; experiment: cells; format: cell-based; settings: for EC50: MDBK, 24 h, cell viability, CCK-8
Description: (§4) Madin–Darby bovine kidney (MDBK) (ECACC), mouse embryonic fibroblast (NIH/3T3 ATCC CRL-1658) and Human foreskin fibroblast (HFF HFF-1 ATCC SCRC-1041) cell lines were recovered from -80°C stock and cultured continuously in our laboratory at 37°C in a humidified incubator with 5% CO2. In 75 cm^2 culture flasks, NIH/3T3 and HFF cell lines were maintained with Dulbecco’s Modified Eagle’s Medium (DMEM; Gibco, Grand Island, NY, USA), while the MDBK cell line was maintained with Minimum Essential Medium Eagle (MEM; Gibco). Ten percent fetal bovine serum, 1% glutamine, and 0.5% penicillin/streptomycin (Gibco) were added to all media and the cells were stained with 4, 6-diamidino-2-phenylindole dihydrochloride (DAPI; Sigma-Aldrich, St. Louis, MO, USA) to ensure that they were free from mycoplasma contamination. Afterward, the cells were washing twice with Dulbecco’s phosphate-buffered saline and TrypLE Express (Gibco) was used for cell detachment from the culture flask. Finally, Neubauer improved C-Chip (NanoEntek Inc., Seoul, Korea) was used for counting the viable cells after staining with 0.4% trypan blue solution.
(§5) The cytotoxicity assay was performed in accordance with the previously described protocol. Briefly, the assay was carried out using 96-well plates at 37 °C in a humidified incubator with 5% CO2, 100 μl of cells at a density of 5 x 10^4 cells/ml was seeded per well and allowed to attach to the plate for 24 h. Ten microliters of twofold drug dilutions was added to each well to a final concentration of 0.781 to 100 μM in triplicate and incubated for another 24 h. Ten μl of Cell Counting Kits-8 (CCK-8; Dojindo, Japan) was added to each well and incubated for another 3 h, and the absorbance was measured at 450 nm using a microplate reader.

[2] = tested on: human foreskin fibroblast (HFF) cell line; experiment: cells; format: cell-based; settings: for EC50: cell viability, HFF, 24 h, CCK-8
Description: as §4, §5

[3] = tested on: mouse embryonic fibroblast (NIH/3T3) cell line; experiment: cells; format: cell-based; settings: for EC50: cell viability, NIH/3T3, 24 h, CCK-8
Description: as §4, §5

B. bigemina = experiment: Growth inhibitory fluorescence assay in vitro, B. bigemina; format: cell-based, Babesia bigemina
Description: as §1, §2, §3

B. microti = experiment: Chemotherapeutic effect against B. microti in mice (parasitemia); format: in vivo, Babesia microti; settings: BALB/c mice, 25 mg/kg DA i.p.
Description: Rodent B. microti (Munich strain) was recovered from -80°C stock and injected intraperitoneally (i.p.) in two 8-week-old female BALB/c mice purchased from CLEA Japan (Clea Japan, Tokyo, Japan). The mice were euthanized using an anesthesia system containing isoflurane after parasitemia reached approximately 30% and the blood was collected by cardiac puncture to conduct the in vivo studies.
(§6) The promising effect of CRY in vitro encouraged us to evaluate its in vivo effects against B. microti in mice. The assay was conducted in accordance with the previously described protocol. In two separate trials, 35 female 8-week-old BALB/c mice, housed under a pathogen-free environment with controlled humidity, temperature (22°C) and a 12 h light/ dark cycle were caged in seven groups, each group consisting of five mice. Six groups were i.p. injected with 0.5 ml of inoculum (1×10^7 B. microti iRBCs), while the seventh group was left uninfected and untreated to act as a negative control. When the average parasitemia in all infected mice reached approximately 1%, the 5-day drug treatment was initiated. The first and second groups were i.p. injected with 25 mg/kg body weight (BW) of DA and 5 mg/kg BW of CRY, respectively. The third group received 20 mg/kg BW of AQ orally, while the fourth and fifth groups were administered a combination of 2.5 mg/kg BW CRY + 12.5 mg/kg BW DA and 2.5 mg/kg BW CRY + 10 mg/kg AQ via a route similar to that of the single-drug treatment, respectively. The sixth group received 5% DMSO in physiological saline i.p. as a positive control. Parasitemia and hematology profiles (RBCs, hemoglobin (HGB), and HCT) were monitored every 2 and 4 days by microscopic examination and hematology analyzer (Celltac α MEK-6450, Nihon Kohden Corporation, Tokyo, Japan), respectively. On day 49, all mice were euthanized using an anesthesia system containing isoflurane and the blood was collected by cardiac puncture for PCR detection of the parasites.

[4] = tested on: B. microti small-subunit rRNA (ss-rRNA) gene; experiment: Nested PCR detection of B. microti DNA in blood of treated mice; format: in vivo, Babesia microti; settings: day 49, 25 mg/kg DA
Description: as §6
The nested PCR (nPCR) that targeted the B. microti small-subunit rRNA (ss-rRNA) gene was performed in accordance with the previously described protocol and the genomic DNA was extracted from blood samples collected from all mice groups on day 49 post-infection (p.i.) using a QIAamp DNA Blood Mini Kit (Qiagen, Tokyo, Japan). PCR cycling conditions were performed as previously described and the bands with an expected size of 154 bp were considered positive.

CC(C)/N=c1\cc2n(-c3ccc(Cl)cc3)c3ccccc3nc-2cc1Nc1ccc(Cl)cc1 [CF, clofazimine]
Selective index HFF (T. equi; EC50 HFF / IC50 T. equi): ˃ 34.7 | Selective index MDBK (T. equi; EC50 MDBK / IC50 T. equi): 12.1 | Selective index NIH/3T3 (T. equi; EC50 NIH/3T3 / IC50 T. equi): ˃ 34.7 | Selective index HFF (B. bovis; EC50 HFF / IC50 B. bovis): ˃ 12.1 | Selective index MDBK (B. bovis; EC50 MDBK / IC50 B. bovis): 4.2 | Selective index NIH/3T3 (B. bovis; EC50 NIH/3T3 / IC50 B. bovis): ˃ 12.1 | Selective index HFF (B. divergens; EC50 HFF / IC50 B. divergens): ˃ 7.2 | Selective index MDBK (B. divergens; EC50 MDBK / IC50 B. divergens): 2.5 | Selective index NIH/3T3 (B. divergens; EC50 NIH/3T3 / IC50 B. divergens): ˃ 7.2 | Selective index HFF (B. caballi; EC50 HFF / IC50 B. caballi): ˃ 12.6 | Selective index MDBK (B. caballi; EC50 MDBK / IC50 B. caballi): 4.4 | Selective index NIH/3T3 (B. caballi; EC50 NIH/3T3 / IC50 B. caballi): ˃ 12.6 | EC50 ([1]; Bos taurus): 34000 ± 3400 nM | EC50 [1]: 34700 ± 3400 nM | EC50 ([2]; Homo sapiens): > 100000 nM | EC50 ([3]; Mus musculus, NIH3T3): > 100000 nM | Selective index HFF (B. bigemina; EC50 HFF / IC50 B. bigemina): ˃ 17.5 | Selective index MDBK (B. bigemina; EC50 MDBK / IC50 B. bigemina): 6.1 | Selective index NIH/3T3 (B. bigemina; EC50 NIH/3T3 / IC50 B. bigemina): ˃ 17.5

CC(=O)NCC(=O)O.CC(=O)NCC(=O)O.N=C(N)c1ccc(N=NNc2ccc(C(=N)N)cc2)cc1 [DA, diminazene aceturate]
IC50 (T. equi; T. equi in vitro culture, fluorescence assay, 96 h): 710 ± 0.05 nM | IC50 (B. bovis; B. bovis in vitro culture, fluorescence assay, 96 h): 350 ± 0.06 nM | IC50 (B. divergens; B. divergens in vitro culture, fluorescence assay, 96 h, read-out: IC50): 430 ± 0.05 nM | day p.i. on which parasitemia was undetectable by microscopy (B. microti): 16 days | peak parasitemia level (B. microti; 5 days, day 10): 8.5% | parasite DNA in blood (nPCR) [4]: not detected | IC50 (B. caballi; B. caballi in vitro culture, fluorescence assay, 96 h): 22 ± 0.0002 nM | inhibition of cell line at 100 μM [1]: did not show any inhibition | EC50 [1]: > 100000 nM | inhibition of cell line at 100 μM [2]: did not show any inhibition | EC50 [2]: > 100000 nM | inhibition of cell line at 100 μM [3]: did not show any inhibition | EC50 [3]: > 100000 nM | IC50 (B. bigemina; B. bigemina in vitro culture, fluorescence assay, 96 h): 680 ± 0.09 nM
